Data set [1] relates to dopaminergic neurons (TH+) of rat embryo ventral midbrain culture. Nature of the data set: dopaminergic neuron spontaneous degeneration model in culture, TH+ neuron count after 8 days (Schmidt et al. protocol). The format is cell-based. The method, then: Quinoxaline derivatives were tested on a dopaminergic neuron spontaneous degeneration model in culture according to the protocol described in the article by F. Schmidt et al. […] This model consists of culturing rat embryo ventral midbrain. This part of the brain in culture contains a proportion of dopaminergic neurons of 5% of the total neurons; the other neurons are mainly GABAergic. These cultures are also composed of glial cells, i.e., astrocytes, oligodendrocytes and microglia. These cultures are characterized by progressive neuron death.

A short description of data set [2]: IP study in rats: brain extract and plasma concentration. The format is in vivo. On the procedure: The kinetics in mouse brain and plasma of compound 4bc after IP administration are also shown in FIG. 8. • Another study was done in rats treated by IP. These rats received a treatment of 20 or 45 mg/kg at 10 mL/kg of a solution of compound 4bc over 2 days comprising 2 IP injections the first day and 1 IP injection the second day.

The subject of data set [3] is dopaminergic fibers in the striatum and dopaminergic neurons in the substantia nigra. Nature of the data set: neuroprotection in mice lesioned by intranasal MPTP (animal model of Parkinson's disease), TH immunohistochemistry. It counts as in vivo. To be noted: oral 150 mg/kg twice daily 2 days then 75 mg/kg once daily. The text has this:
The goal of this study is to test by an […] study the neuroprotective activity of compound 4bc administered orally to a mouse after it is poisoned by intranasal administration of MPTP. The food intake and weight of the animals were also compared to a control group. The densitometric analysis of striatal fibers and count of dopaminergic cell bodies in the substantia nigra, after immunohistochemical marking of tyrosine hydroxylase enabled quantifying the neuroprotective effect of the compound.
30 male C57BL\6J mice aged 3 months (supplier: Janvier Breeding Center) were used during this study.
Compound 4bc was administered orally at a dose of 150 mg/kg to 10 mL/kg, twice daily for two days, and then 75 mg/kg once daily. The carrier was composed of 0.5% Tween 80+99.5% carboxymethylcellulose (at 1% in water). A curved rigid tube connected to a 1 mL Terumo syringe was used for administration.
MPTP, a toxin specific for dopaminergic neurons was administered intranasally. One mg (10 μl) of MPTP/HCl (Sigma) dissolved in a 0.9% NaCl solution was delivered per nostril with a 3-minute interval between the two nostrils. […]
To quantify the neuroprotective capacity of compound 4bc, an immunohistochemistry study was done on floating brain slices. Two brain anatomic structures were analyzed: the striatum (20 μm slices, 10 levels) and the substantia nigra (20 μm slices, 7 levels). […]

A short description of data set [4]: toxicity: animal weight monitoring during per os treatment. The format is in vivo. On the procedure: Three groups were created: • mice who received the carrier orally at 10 mL/kg (Group V, n=4), • mice treated with compound 4bc orally at 150 mg/kg and at 10 mL/kg (Group T, n=6), • control mice who received no treatment (n=2). All the mice were treated or received the carrier twice daily for 4 days. On the 5th day, a last treatment was administered and the animals were euthanized between […]. after this last treatment according to the following plan:
The animals were weighed every day throughout the sub-chronic study in order to monitor their general condition. Animal weights were considered a good indicator of general health since a compound's toxicity is known to be characterized by loss of bodyweight over time.

The mark [5] stands for this setting: IP 20 mg/kg at 10 mL/kg, approximately 3 h.

In the case of `Cc1nc2ccc(N)cc2nc1-c1ccccc1` [Compound 4bc], the “activity on survival of dopaminergic neurons (in words)” value in data set [1] (100 nM, compared with dbcAMP) is recorded as “nearly equal to the one induced by dbcAMP”. Moreover, in data set [1] (Rattus norvegicus, Neuron, 192 h, compound at 100 nM, 8 days of culture, read-out: TH+ neurons in % of control ± SEM), the activity at 0.1 µM is 140%. Besides, the Brain extract concentration in data set [2] (setting [5]) is 0.1 µg/mL; in data set [2] (IP 45 mg/kg at 10 mL/kg, approximately 1 h) it was 5.1 µg/mL. Also, the Plasma concentration in data set [2] (setting [5]) stood at 400 ng/mL. Also, the “neuroprotective activity on dopaminergic fibers in vivo (FIGS. 9 and 10)” value in data set [3] (intranasal MPTP, Mann-Whitney test) is listed as “significant neuroprotective activity”. In addition, in data set [3] (not lesioned), the “mild toxicity in animals who received only the compound (T/NL)” value is reported as “not significant”. In data set [4] (oral, 300 mg/kg/day over a 5-day treatment), the adverse reactions result is listed as “without adverse reactions”. Further, the “toxicity from animal weight gain” value in data set [4] (per os, 300 mg/kg/day, 5 days) is reported as “absence of significant toxicity”.
